Assay results as given in article PMC12748989 (Nature Communications, 2025).

Experiments:
[1] = system: MDA-MB-231 cells
[2] = system: PBMC; details: 12.5 µM

## CC[C@H](C)[C@H](N)C(=O)N[C@@H](CC(N)=O)C(=O)N[C@@H](CC(C)C)C(=O)N[C@@H](CCCCN)C(=O)N[C@@H](C)C(=O)N[C@@H](CC(C)C)C(=O)N[C@@H](C)C(=O)N[C@@H](C)C(=O)N[C@@H](CC(C)C)C(=O)N[C@@H](C)C(=O)N[C@H](C(=O)N[C@@H](CCCCN)C(=O)N[C@H](C(=O)N[C@@H](CC(C)C)C(N)=O)[C@@H](C)CC)C(C)C [V11]
[1]
  Average (percentage cell inhibition), Dmastoparan MDA-MB231 12.5uM: 50.781%
[2]
  Average (percentage cell inhibition), Mastoparan PBMC: 14.2972%

## CC[C@H](C)[C@H](N)C(=O)N[C@@H](CC(N)=O)C(=O)N[C@@H](CC(C)C)C(=O)N[C@@H](CCC(N)=O)C(=O)N[C@@H](C)C(=O)N[C@@H](CC(C)C)C(=O)N[C@@H](C)C(=O)N[C@@H](C)C(=O)N[C@@H](CC(C)C)C(=O)N[C@@H](C)C(=O)N[C@@H](CCCCN)C(=O)N[C@@H](CCCCN)C(=O)N[C@H](C(=O)N[C@@H](CC(C)C)C(N)=O)[C@@H](C)CC [Q4]
[1]
  Average (percentage cell inhibition), Dmastoparan MDA-MB231 12.5uM: 34.9808%
[2]
  Average (percentage cell inhibition), Mastoparan PBMC: -3.9555%

## CC[C@H](C)[C@H](N)C(=O)N1CCC[C@H]1C(=O)N[C@@H](CC(C)C)C(=O)N[C@@H](CCCCN)C(=O)N[C@@H](C)C(=O)N[C@@H](CC(C)C)C(=O)N[C@@H](C)C(=O)N[C@@H](C)C(=O)N[C@@H](CC(C)C)C(=O)N[C@@H](C)C(=O)N[C@@H](CCCCN)C(=O)N[C@@H](CCCCN)C(=O)N[C@H](C(=O)N[C@@H](CC(C)C)C(N)=O)[C@@H](C)CC [P2]
[1]
  Average (percentage cell inhibition), Dmastoparan MDA-MB231 12.5uM: 36.9174%
[2]
  Average (percentage cell inhibition), Mastoparan PBMC: -4.49%

## CC[C@H](C)[C@H](N)C(=O)N[C@@H](CC(N)=O)C(=O)N[C@@H](CC(C)C)C(=O)N[C@@H](CCCCN)C(=O)N[C@@H](C)C(=O)N[C@@H](CC(C)C)C(=O)N[C@@H](C)C(=O)N[C@@H](C)C(=O)N[C@@H](CC(C)C)C(=O)N[C@@H](C)C(=O)N[C@@H](CCC(=O)O)C(=O)N[C@@H](CCCCN)C(=O)N[C@H](C(=O)N[C@@H](CC(C)C)C(N)=O)[C@@H](C)CC [E11]
[1]
  Average (percentage cell inhibition), Dmastoparan MDA-MB231 12.5uM: 19.6815%
[2]
  Average (percentage cell inhibition), Mastoparan PBMC: 5.959%

## CC[C@H](C)[C@H](NC(=O)[C@H](CCCCN)NC(=O)[C@H](CCCCN)NC(=O)[C@H](C)NC(=O)[C@H](CC(C)C)NC(=O)[C@H](C)NC(=O)[C@H](C)NC(=O)[C@H](CC(C)C)NC(=O)[C@H](C)NC(=O)[C@H](CCCCN)NC(=O)[C@H](CC(C)C)NC(=O)[C@H](CC(N)=O)NC(=O)CN)C(=O)N[C@@H](CC(C)C)C(N)=O [G1]
[1]
  Average (percentage cell inhibition), Dmastoparan MDA-MB231 12.5uM: 44.9778%
[2]
  Average (percentage cell inhibition), Mastoparan PBMC: 6.436%

## CC[C@H](C)[C@H](N)C(=O)N[C@@H](CC(N)=O)C(=O)N[C@@H](CC(C)C)C(=O)N[C@@H](CCCCN)C(=O)N[C@@H](C)C(=O)N[C@@H](CC(C)C)C(=O)N[C@@H](C)C(=O)N[C@@H](C)C(=O)N[C@@H](CC(N)=O)C(=O)N[C@@H](C)C(=O)N[C@@H](CCCCN)C(=O)N[C@@H](CCCCN)C(=O)N[C@H](C(=O)N[C@@H](CC(C)C)C(N)=O)[C@@H](C)CC [N9]
[1]
  Average (percentage cell inhibition), Dmastoparan MDA-MB231 12.5uM: 3.242%
[2]
  Average (percentage cell inhibition), Mastoparan PBMC: 3.083%

## CC[C@H](C)[C@H](N)C(=O)N[C@@H](CC(N)=O)C(=O)N[C@@H](CC(C)C)C(=O)N[C@@H](CCCCN)C(=O)N[C@@H](C)C(=O)N[C@H](C(=O)N[C@@H](C)C(=O)N[C@@H](C)C(=O)N[C@@H](CC(C)C)C(=O)N[C@@H](C)C(=O)N[C@@H](CCCCN)C(=O)N[C@@H](CCCCN)C(=O)N[C@H](C(=O)N[C@@H](CC(C)C)C(N)=O)[C@@H](C)CC)C(C)C [V6]
[1]
  Average (percentage cell inhibition), Dmastoparan MDA-MB231 12.5uM: 10.4144%
[2]
  Average (percentage cell inhibition), Mastoparan PBMC: -4.76%

## CC[C@H](C)[C@H](N)C(=O)N[C@@H](CC(N)=O)C(=O)N[C@@H](CC(C)C)C(=O)N[C@@H](CCCCN)C(=O)N[C@@H](C)C(=O)N[C@@H](CC(C)C)C(=O)N[C@@H](C)C(=O)N[C@@H](C)C(=O)N[C@@H](CC(C)C)C(=O)N[C@@H](C)C(=O)N[C@@H](CCCCN)C(=O)N[C@@H](CCCCN)C(=O)N[C@H](C(=O)N[C@@H](CC(N)=O)C(N)=O)[C@@H](C)CC [N14]
[1]
  Average (percentage cell inhibition), Dmastoparan MDA-MB231 12.5uM: -1.851%
[2]
  Average (percentage cell inhibition), Mastoparan PBMC: 9.15%

## CC[C@H](C)[C@H](N)C(=O)N[C@@H](CO)C(=O)N[C@@H](CC(C)C)C(=O)N[C@@H](CCCCN)C(=O)N[C@@H](C)C(=O)N[C@@H](CC(C)C)C(=O)N[C@@H](C)C(=O)N[C@@H](C)C(=O)N[C@@H](CC(C)C)C(=O)N[C@@H](C)C(=O)N[C@@H](CCCCN)C(=O)N[C@@H](CCCCN)C(=O)N[C@H](C(=O)N[C@@H](CC(C)C)C(N)=O)[C@@H](C)CC [S2]
[1]
  Average (percentage cell inhibition), Dmastoparan MDA-MB231 12.5uM: 39.9159%
[2]
  Average (percentage cell inhibition), Mastoparan PBMC: 20.6714%

## CC[C@H](C)[C@H](N)C(=O)N[C@@H](CC(N)=O)C(=O)N[C@@H](CC(C)C)C(=O)N[C@@H](CCCCN)C(=O)N[C@@H](CC(N)=O)C(=O)N[C@@H](CC(C)C)C(=O)N[C@@H](C)C(=O)N[C@@H](C)C(=O)N[C@@H](CC(C)C)C(=O)N[C@@H](C)C(=O)N[C@@H](CCCCN)C(=O)N[C@@H](CCCCN)C(=O)N[C@H](C(=O)N[C@@H](CC(C)C)C(N)=O)[C@@H](C)CC [N5]
[1]
  Average (percentage cell inhibition), Dmastoparan MDA-MB231 12.5uM: 45.6062%
[2]
  Average (percentage cell inhibition), Mastoparan PBMC: 6.591%

## CC[C@H](C)[C@H](N)C(=O)N[C@@H](CC(N)=O)C(=O)N[C@@H](CC(C)C)C(=O)N[C@@H](CCCCN)C(=O)N[C@@H](C)C(=O)N[C@@H](CC(C)C)C(=O)N[C@@H](C)C(=O)N[C@@H](C)C(=O)N[C@@H](CC(C)C)C(=O)N[C@@H](C)C(=O)N[C@@H](CCCCN)C(=O)N[C@@H](CC(C)C)C(=O)N[C@H](C(=O)N[C@@H](CC(C)C)C(N)=O)[C@@H](C)CC [L12]
[1]
  Average (percentage cell inhibition), Dmastoparan MDA-MB231 12.5uM: 85.0992%
[2]
  Average (percentage cell inhibition), Mastoparan PBMC: 80.1821%

## CC[C@H](C)[C@H](N)C(=O)N[C@@H](CC(N)=O)C(=O)N[C@@H](CC(C)C)C(=O)N[C@@H](CCCCN)C(=O)N[C@@H](C)C(=O)N[C@@H](CC(C)C)C(=O)N[C@@H](C)C(=O)N[C@@H](C)C(=O)N[C@@H](CC(C)C)C(=O)N[C@@H](C)C(=O)N[C@@H](CCCCN)C(=O)N[C@@H](CCCCN)C(=O)N[C@@H](CO)C(=O)N[C@@H](CC(C)C)C(N)=O [S13]
[1]
  Average (percentage cell inhibition), Dmastoparan MDA-MB231 12.5uM: 39.6113%
[2]
  Average (percentage cell inhibition), Mastoparan PBMC: -6.27%

## CC[C@H](C)[C@H](N)C(=O)N[C@@H](CC(N)=O)C(=O)N[C@@H](CC(C)C)C(=O)N[C@@H](CCCCN)C(=O)N[C@@H](C)C(=O)N[C@@H](CC(C)C)C(=O)N[C@@H](C)C(=O)N[C@@H](C)C(=O)N[C@@H](CC(C)C)C(=O)N[C@@H](C)C(=O)N[C@@H](CCCCN)C(=O)N[C@@H](CCCCN)C(=O)N[C@H](C(=O)N[C@@H](Cc1c[nH]cn1)C(N)=O)[C@@H](C)CC [H14]
[1]
  Average (percentage cell inhibition), Dmastoparan MDA-MB231 12.5uM: 14.7055%
[2]
  Average (percentage cell inhibition), Mastoparan PBMC: -11.4515%

## CC[C@H](C)[C@H](N)C(=O)N[C@@H](CC(N)=O)C(=O)N[C@@H](CC(C)C)C(=O)N[C@@H](CCCCN)C(=O)N[C@@H](C)C(=O)N[C@@H](CC(C)C)C(=O)N[C@@H](C)C(=O)N[C@@H](C)C(=O)N[C@@H](CC(C)C)C(=O)N[C@@H](C)C(=O)N[C@@H](CCCCN)C(=O)N[C@@H](CCCCN)C(=O)N[C@H](C(=O)N[C@@H](CC(C)C)C(N)=O)C(C)C [V13]
[1]
  Average (percentage cell inhibition), Dmastoparan MDA-MB231 12.5uM: 38.0334%
[2]
  Average (percentage cell inhibition), Mastoparan PBMC: 11.5837%

## CC[C@H](C)[C@H](N)C(=O)N[C@@H](CC(N)=O)C(=O)N[C@@H](CC(C)C)C(=O)N[C@@H](CCCCN)C(=O)N[C@@H](C)C(=O)N[C@@H](C)C(=O)N[C@@H](C)C(=O)N[C@@H](C)C(=O)N[C@@H](CC(C)C)C(=O)N[C@@H](C)C(=O)N[C@@H](CCCCN)C(=O)N[C@@H](CCCCN)C(=O)N[C@H](C(=O)N[C@@H](CC(C)C)C(N)=O)[C@@H](C)CC [A6]
[1]
  Average (percentage cell inhibition), Dmastoparan MDA-MB231 12.5uM: 16.1268%
[2]
  Average (percentage cell inhibition), Mastoparan PBMC: -1.6231%

## CC[C@H](C)[C@H](N)C(=O)N[C@@H](CC(N)=O)C(=O)N[C@@H](CC(C)C)C(=O)N[C@@H](CO)C(=O)N[C@@H](C)C(=O)N[C@@H](CC(C)C)C(=O)N[C@@H](C)C(=O)N[C@@H](C)C(=O)N[C@@H](CC(C)C)C(=O)N[C@@H](C)C(=O)N[C@@H](CCCCN)C(=O)N[C@@H](CCCCN)C(=O)N[C@H](C(=O)N[C@@H](CC(C)C)C(N)=O)[C@@H](C)CC [S4]
[1]
  Average (percentage cell inhibition), Dmastoparan MDA-MB231 12.5uM: 28.0357%
[2]
  Average (percentage cell inhibition), Mastoparan PBMC: 7.7%

## CC[C@H](C)[C@H](N)C(=O)N[C@@H](CC(N)=O)C(=O)N[C@@H](CC(C)C)C(=O)N[C@@H](CCCCN)C(=O)N[C@@H](C)C(=O)N[C@@H](CC(C)C)C(=O)N[C@@H](C)C(=O)N[C@@H](C)C(=O)N[C@@H](CC(C)C)C(=O)N[C@@H](C)C(=O)N[C@@H](CCCCN)C(=O)N[C@@H](CCCNC(=N)N)C(=O)N[C@H](C(=O)N[C@@H](CC(C)C)C(N)=O)[C@@H](C)CC [R12]
[1]
  Average (percentage cell inhibition), Dmastoparan MDA-MB231 12.5uM: 35.2659%
[2]
  Average (percentage cell inhibition), Mastoparan PBMC: -4.156%

## CC[C@H](C)[C@H](N)C(=O)N[C@@H](CC(N)=O)C(=O)N[C@@H](CC(C)C)C(=O)N[C@@H](CCCCN)C(=O)N[C@@H](C)C(=O)N[C@@H](CC(C)C)C(=O)N[C@@H](C)C(=O)N[C@@H](C)C(=O)N[C@H](C(=O)N[C@@H](C)C(=O)N[C@@H](CCCCN)C(=O)N[C@@H](CCCCN)C(=O)N[C@H](C(=O)N[C@@H](CC(C)C)C(N)=O)[C@@H](C)CC)[C@@H](C)O [T9]
[1]
  Average (percentage cell inhibition), Dmastoparan MDA-MB231 12.5uM: 18.2148%
[2]
  Average (percentage cell inhibition), Mastoparan PBMC: 2.309%

## CC[C@H](C)[C@H](N)C(=O)N[C@@H](CC(N)=O)C(=O)N[C@@H](CC(C)C)C(=O)N[C@@H](CCCCN)C(=O)N[C@@H](C)C(=O)N[C@@H](CCCCN)C(=O)N[C@@H](C)C(=O)N[C@@H](C)C(=O)N[C@@H](CC(C)C)C(=O)N[C@@H](C)C(=O)N[C@@H](CCCCN)C(=O)N[C@@H](CCCCN)C(=O)N[C@H](C(=O)N[C@@H](CC(C)C)C(N)=O)[C@@H](C)CC [K6]
[1]
  Average (percentage cell inhibition), Dmastoparan MDA-MB231 12.5uM: 7.2133%
[2]
  Average (percentage cell inhibition), Mastoparan PBMC: -1.883%

## CC[C@H](C)[C@H](N)C(=O)N[C@@H](CC(N)=O)C(=O)N[C@@H](CC(C)C)C(=O)N[C@@H](CCCCN)C(=O)N[C@@H](C)C(=O)N[C@@H](CC(C)C)C(=O)N[C@@H](C)C(=O)N[C@@H](C)C(=O)N[C@@H](CC(C)C)C(=O)N[C@@H](C)C(=O)N[C@@H](CCCCN)C(=O)N[C@@H](CCCCN)C(=O)N[C@H](C(=O)N[C@@H](CC(C)C)C(N)=O)[C@@H](C)O [T13]
[1]
  Average (percentage cell inhibition), Dmastoparan MDA-MB231 12.5uM: 38.2444%
[2]
  Average (percentage cell inhibition), Mastoparan PBMC: 3.307%
